Experimental data taken from patent publication US20240025883A1, “PYRIMIDIN-2-YL SULFONAMIDE DERIVATIVES” (Hoffmann-La Roche Inc., priority 2021, published 2024).

Molecular target: human GPR17 short isoform (Homo sapiens (Human), UniProt Q13304)
Test: GPR17 cAMP assay (hGPR17 cAMP, antagonist mode against EC80 of MDL29,951)
Format: cell-based
Conditions: CHO-K1 cells stably expressing human GPR17 short isoform; EC80 of agonist MDL29,951; forskolin 15 μM
How it was run: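 CHO-K1 cells stably expressing untagged human GPR17 short isoform, 10,000/well in HBSS/10 mM HEPES/0.1% BSA pH 7.4. Compounds added with EC80 MDL29,951 and 0.5 mM IBMX, then 15 μM forskolin 5 min later, 30 min at room temperature; cAMP by TR-FRET, normalized to reference antagonist, sigmoidal fit.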

Chain of human GPR17 short isoform (Q13304 29-367): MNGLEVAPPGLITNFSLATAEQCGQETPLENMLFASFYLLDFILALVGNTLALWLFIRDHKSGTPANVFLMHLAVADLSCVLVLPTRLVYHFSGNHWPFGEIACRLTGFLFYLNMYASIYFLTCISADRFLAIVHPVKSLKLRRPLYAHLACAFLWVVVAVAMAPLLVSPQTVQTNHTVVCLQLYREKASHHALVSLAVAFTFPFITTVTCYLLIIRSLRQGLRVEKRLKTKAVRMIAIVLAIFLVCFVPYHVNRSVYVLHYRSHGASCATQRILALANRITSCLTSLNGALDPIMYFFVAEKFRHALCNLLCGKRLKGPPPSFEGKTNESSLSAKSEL

Row | IC50 [nM] | SMILES
1 | 91 | COc1nc(NS(=O)(=O)c2c[nH]c3cc(Cl)ccc23)ncc1CC(F)(F)C(F)F [Example 261, 6-chloro-N-[4-methoxy-5-(2,2,3,3-tetrafluoropropyl)pyrimidin-2-yl]-1H-indole-3-sulfonamide]
2 | 29 | COc1nc(NS(=O)(=O)c2csc3nc(Br)ccc23)nc(OC)c1CCC#N [Example 151, 6-bromo-N-[5-(2-cyanoethyl)-4,6-dimethoxy-pyrimidin-2-yl]thieno[2,3-b]pyridine-3-sulfonamide]
3 | 877 | COc1cnc(NS(=O)(=O)c2c[nH]c3cc(Cl)ccc23)nc1Cl [Example 173, 6-chloro-N-(4-chloro-5-methoxy-pyrimidin-2-yl)-1H-indole-3-sulfonamide]
4 | 305 | COc1nc(NS(=O)(=O)c2c[nH]c3cc(Cl)ccc23)ncc1C#CC1COC1 [Example 180, 6-chloro-N-[4-methoxy-5-[2-(oxetan-3-yl)ethynyl]pyrimidin-2-yl]-1H-indole-3-sulfonamide]
5 | 809 | COCCc1cnc(NS(=O)(=O)c2c[nH]c3cc(Cl)ccc23)nc1OC [Example 49, 6-chloro-N-[4-methoxy-5-(2-methoxyethyl)pyrimidin-2-yl]-1H-indole-3-sulfonamide]
6 | 50 | COc1nc(NS(=O)(=O)c2c[nH]c3c(Cl)c(Cl)ccc23)ncc1OCCF [Example 3, 6,7-dichloro-N-[5-(2-fluoroethoxy)-4-methoxy-pyrimidin-2-yl]-1H-indole-3-sulfonamide]
7 | 27 | COc1nc(NS(=O)(=O)c2c[nH]c3cc(Br)ccc23)nc(OC)c1CC(F)F [Example 245, 6-bromo-N-[5-(2,2-difluoroethyl)-4,6-dimethoxy-pyrimidin-2-yl]-1H-indole-3-sulfonamide]
8 | 131 | COc1nc(NS(=O)(=O)c2c[nH]c3cc(Cl)ccc23)ncc1OC(F)(F)C(F)Cl (stereo not shown) [Example 44, 6-chloro-N-[5-(2-chloro-1,1,2-trifluoro-ethoxy)-4-methoxy-pyrimidin-2-yl]-1H-indole-3-sulfonamide]
9 | 80 | CC#Cc1cnc(NS(=O)(=O)c2c[nH]c3cc(Cl)ccc23)nc1OC [Example 29, 6-chloro-n-(4-methoxy-5-prop-1-ynyl-pyrimidin-2-yl)-1h-indole-3-sulfonamide]
10 | 569 | Cc1nc(NS(=O)(=O)c2c[nH]c3cc(Cl)ccc23)nc(C)c1Br [Example 33, N-(5-bromo-4,6-dimethyl-pyrimidin-2-yl)-6-chloro-1H-indole-3-sulfonamide]
11 | 25 | COc1nc(NS(=O)(=O)c2c[nH]c3c(C#N)c(Cl)ccc23)nc(OC)c1OC(F)F [Example 224, 6-chloro-7-cyano-N-[5-(difluoromethoxy)-4,6-dimethoxy-pyrimidin-2-yl]-1H-indole-3-sulfonamide]
12 | 16 | COc1nc(NS(=O)(=O)c2c[nH]c3c(OC)c(Br)ccc23)ncc1CC(F)F [Example 196, 6-bromo-N-[5-(2,2-difluoroethyl)-4-methoxy-pyrimidin-2-yl]-7-methoxy-1H-indole-3-sulfonamide]
13 | 73 | CC#CCOc1cnc(NS(=O)(=O)c2c[nH]c3cc(Cl)ccc23)nc1OC [Example 175, N-(5-but-2-ynoxy-4-methoxy-pyrimidin-2-yl)-6-chloro-1H-indole-3-sulfonamide]
14 | 14 | COc1nc(NS(=O)(=O)c2c[nH]c3cc(Cl)ccc23)nc(OC)c1C1CC1 [Example 69, 6-chloro-N-(5-cyclopropyl-4,6-dimethoxy-pyrimidin-2-yl)-1H-indole-3-sulfonamide]
15 | 62 | COc1nc(NS(=O)(=O)c2c[nH]c3c(C#N)c(Cl)ccc23)ncc1OCCF [Example 280, 6-Chloro-7-Cyano-N-[5-(2-Fluoroethoxy)-4-Methoxy-Pyrimidin-2-Yl]-1H-Indole-3-Sulfonamide]
16 | 8 | COc1nc(NS(=O)(=O)c2c[nH]c3cc(Cl)ccc23)nc(OC)c1CC(F)F [Example 60, 6-chloro-N-[5-(2,2-difluoroethyl)-4,6-dimethoxy-pyrimidin-2-yl]-1H-indole-3-sulfonamide]
17 | 2680 | COc1nc(NS(=O)(=O)c2c[nH]c3cc(Cl)ccc23)ncc1OC1CC1 [Example 38, 6-chloro-N-[5-(cyclopropoxy)-4-methoxy-pyrimidin-2-yl]-1H-indole-3-sulfonamide]
18 | 367 | COc1nc(NS(=O)(=O)c2c[nH]c3c(F)c(C(F)F)ccc23)ncc1CC(F)F [Example 248, N-[5-(2,2-difluoroethyl)-4-methoxy-pyrimidin-2-yl]-6-(difluoromethyl)-7-fluoro-1H-indole-3-sulfonamide]
19 | 17 | CCCc1c(OC)nc(NS(=O)(=O)c2c[nH]c3cc(Cl)ccc23)nc1OC [Example 58, 6-chloro-N-(4,6-dimethoxy-5-propyl-pyrimidin-2-yl)-1H-indole-3-sulfonamide]
20 | 162 | COc1nc(NS(=O)(=O)c2c[nH]c3nc(Cl)ccc23)ncc1OCC(F)F [Example 170, 6-chloro-N-[5-(2,2-difluoroethoxy)-4-methoxy-pyrimidin-2-yl]-1H-pyrrolo[2,3-b]pyridine-3-sulfonamide]
21 | 14 | COc1nc(NS(=O)(=O)c2c[nH]c3c(Br)c(Cl)ccc23)ncc1OCCF [Example 141, 7-bromo-6-chloro-N-[5-(2-fluoroethoxy)-4-methoxy-pyrimidin-2-yl]-1H-indole-3-sulfonamide]
22 | 102 | COc1nc(NS(=O)(=O)c2c[nH]c3nc(C(F)F)ccc23)nc(OC)c1OCC#N [Example 99, N-[5-(cyanomethoxy)-4,6-dimethoxy-pyrimidin-2-yl]-6-(difluoromethyl)-1H-pyrrolo[2,3-b]pyridine-3-sulfonamide]
23 | 76 | COc1nc(NS(=O)(=O)c2c[nH]c3nc(C(F)F)ccc23)nc(OC)c1OC(F)F [Example 94, N-[5-(difluoromethoxy)-4,6-dimethoxy-pyrimidin-2-yl]-6-(difluoromethyl)-1H-pyrrolo[2,3-b]pyridine-3-sulfonamide]
24 | 49 | COc1nc(NS(=O)(=O)c2c[nH]c3nc(Cl)ccc23)nc(OC)c1OC(F)F [Example 205, 6-chloro-N-[5-(difluoromethoxy)-4,6-dimethoxy-pyrimidin-2-yl]-1H-pyrrolo[2,3-b]pyridine-3-sulfonamide]
25 | 24 | COc1nc(NS(=O)(=O)c2c[nH]c3c(OCC#N)c(Cl)ccc23)nc(OC)c1CC(F)F [Example 294, 6-Chloro-7-(Cyanomethoxy)-N-[5-(2,2-Difluoroethyl)-4,6-Dimethoxy-Pyrimidin-2-Yl]-1H-Indole-3-Sulfonamide]
26 | 182 | COc1nc(NS(=O)(=O)c2c[nH]c3cc(Cl)ccc23)nc(OC)c1CC(C)(F)F [Example 63, 6-chloro-N-[5-(2,2-difluoropropyl)-4,6-dimethoxy-pyrimidin-2-yl]-1H-indole-3-sulfonamide]
27 | 25 | COc1nc(NS(=O)(=O)c2c[nH]c3cc(F)ccc23)nc(OC)c1CCC#N [Example 259, N-[5-(2-cyanoethyl)-4,6-dimethoxy-pyrimidin-2-yl]-6-fluoro-1H-indole-3-sulfonamide]
28 | 33 | COc1nc(NS(=O)(=O)c2c[nH]c3cc(Br)ccc23)ncc1CC(F)F [Example 88, 6-bromo-N-[5-(2,2-difluoroethyl)-4-methoxy-pyrimidin-2-yl]-1H-indole-3-sulfonamide]
